Publication PMC5028038, “Demethoxycurcumin Is A Potent Inhibitor of P-Type ATPases from Diverse Kingdoms of Life” (PLoS ONE, 2016)
Values after ≈ are worked out from the molar mass of the structure shown. Read-outs that look alike come from different tables or passages of the source.

Tests used:
[1] = target: T1, A. thaliana PM H+-ATPase isoform AHA2 (Arabidopsis thaliana, UniProt P19456); assay: ATP hydrolysis (Baginski) assay on AHA2 in yeast plasma membranes; type: biochemical; conditions: for effect on AHA2 ATPase activity: 50 μM compound; for slope factor H of inhibition curve, AHA2: variable slope fit
T1 construct: made in house; host or cells: S. cerevisiae strain RS-72, plasma membranes isolated
T1 sequence (P19456 1-948): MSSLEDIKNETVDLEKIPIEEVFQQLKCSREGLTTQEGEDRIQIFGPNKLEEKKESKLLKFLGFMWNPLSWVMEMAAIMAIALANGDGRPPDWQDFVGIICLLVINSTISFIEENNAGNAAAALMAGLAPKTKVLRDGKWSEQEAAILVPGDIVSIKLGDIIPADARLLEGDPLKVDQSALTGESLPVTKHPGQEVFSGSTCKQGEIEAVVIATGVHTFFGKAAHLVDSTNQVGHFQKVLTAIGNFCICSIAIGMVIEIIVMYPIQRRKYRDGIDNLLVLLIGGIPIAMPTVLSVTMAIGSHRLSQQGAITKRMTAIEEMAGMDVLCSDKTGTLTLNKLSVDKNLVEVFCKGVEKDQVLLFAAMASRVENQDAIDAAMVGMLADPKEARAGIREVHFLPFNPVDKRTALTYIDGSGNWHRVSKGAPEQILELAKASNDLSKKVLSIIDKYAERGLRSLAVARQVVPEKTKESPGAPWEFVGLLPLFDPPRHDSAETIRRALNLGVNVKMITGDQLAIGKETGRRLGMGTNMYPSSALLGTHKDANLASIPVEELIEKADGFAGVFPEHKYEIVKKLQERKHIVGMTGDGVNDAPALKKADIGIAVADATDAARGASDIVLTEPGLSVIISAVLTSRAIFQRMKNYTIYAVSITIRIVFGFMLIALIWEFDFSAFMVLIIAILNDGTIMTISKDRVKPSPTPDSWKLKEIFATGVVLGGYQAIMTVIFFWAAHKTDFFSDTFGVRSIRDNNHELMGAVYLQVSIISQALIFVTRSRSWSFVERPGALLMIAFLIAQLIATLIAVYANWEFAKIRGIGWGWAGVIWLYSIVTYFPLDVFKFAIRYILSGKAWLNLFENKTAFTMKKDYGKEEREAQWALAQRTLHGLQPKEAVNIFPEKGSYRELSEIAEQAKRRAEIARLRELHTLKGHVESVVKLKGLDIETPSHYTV
Text: (§1) The S. cerevisiae strain RS-72 (MATa ade1-100 his4-519 leu2-3, 112) was transformed according to the lithium acetate/single-stranded carrier DNA/polyethylene glycol method, and cultured essentially as described previously. In RS-72, the promoter of the endogenous yeast PM H^+-ATPase PMA1 gene was replaced by the galactose-dependent GAL1 promoter. This strain grew in media containing galactose, whereas growth in glucose-based medium requires the complementation of the yeast PM H^+-ATPase with a functional PM H^+-ATPase expressed from a plasmid. A 2-micron yeast expression vector was used for expression of different versions of the Arabidopsis thaliana PM H^+-ATPase AHA2 (pMP 1625); a 92-amino acid C-terminal truncated mutation, aha2∆92 (pMP 132); or the wild-type S. cerevisiae PM H^+-ATPase PMA1 (pMP 400) placed under the control of the PMA1 promoter. The use of RS-72 allows for purification of microsomes with a very low endogenous ATPase activity compared to RS-72 transformed with an H^+-ATPase carrying plasmid.
(§2) Yeast expressing AHA2 and Pma1p PM H^+-ATPase, respectively, were grown and harvested essentially as described. The cells were grown with glucose as carbon source in order to ensure than no endogenous plasma membrane H^+-ATPase is expressed. Microsomes and plasma membranes were isolated with all manipulations performed at 4°C. The final pellets containing the isolated membranes were collected and homogenized in GTED20 buffer (20% [v/v] glycerol, 10 mM Tris-HCl pH 7.5, 1 mM EDTA pH 8.0, 1 mM DTT) and stored at—80°C.
(§3) ATPase activity was determined by the Baginski assay as described previously using 2–5 μg of PM protein. The assays were performed at 30°C in 300 μL volumes with 3 mM ATP, pH 6.5, for determination of AHA2 activity, or with 5 mM ATP, pH 5.9 for Pma1p activity. The assay medium 20 mM MOPS, 50 mM KNO3 (to inhibit vacuolar ATPase), 5 mM NaN3 (to inhibit mitochondrial ATPase), 3.5 mM Na2MoO4 (to inhibit acid phosphatase), 1 mM Mg^2+ free in solution, and the indicated concentrations of MgATP. IC50 values for compound inhibition were determined by pre incubating PM with different concentrations of compound for 30 min at room temperature. For kinetics studies, the concentration of ATP was varied between 0.125 and 8 mM using an ATP regenerating system (5 mM phosphoenolpyruvate and 50 μg/mL pyruvate kinase).
(§4) The kinetic of inhibition for DMCM was determined by monitoring the rate of ATP hydrolysis reaction in the presence of increasing ATP substrate concentration. All kinetic data were gathered from experiments performed in the cuvette-based assay, as described above. The data were used in Hanes-Woolf analysis followed by fitting to the appropriate Michaelis-Menten inhibition equation (competitive, noncompetitive, uncompetitive, or mix type inhibition). The kinetic parameters Vmax, Km, Ki were estimated by nonlinear regression using GraphPad Prism 5.0 (GraphPad Software Inc.). For evaluation of inhibitor potency, IC50 values were calculated by using the equation: A=100/1+10^(LogIC50−LogC)×H where A is the observed % ATPase activity in the presence of compound; C, the compound concentration; IC50, the concentration that caused 50% inhibition of the maximal compound effect; and H, the slope factor.

[2] = target: T2, yeast plasma membrane H+-ATPase Pma1p (Saccharomyces cerevisiae, UniProt P05030); assay: ATP hydrolysis (Baginski) assay on Pma1p in yeast plasma membranes; type: biochemical, S. cerevisiae; conditions: for effect on Pma1p ATPase activity: 50 μM compound; for slope factor H of inhibition curve, Pma1p: variable slope fit
T2 construct: made in house; host or cells: S. cerevisiae strain RS-72 (chromosomal PMA1 under GAL1 promoter, repressed on glucose), plasma membranes isolated
Text: as §1, §2, §3, §4

SERCA1a (Ca2+-ATPase) = SERCA1a (Ca2+-ATPase) (Oryctolagus cuniculus, UniProt P04191); assay: SERCA ATP hydrolysis, NADH-coupled spectrophotometric assay; type: biochemical, rabbit; conditions: purified leaky SERCA preparation
Text: Sarcoplasmic reticulum vesicles, prepared from the leg and back muscles of rabbits, were used to obtain purified SERCA1a by extraction with a low concentration of deoxycholate according to established methods. The resulting membrane fragments were used for enzymatic assays to test the effect of the curcuminoid compounds on ATP hydrolysis spectrophotometrically by NADH oxidation with an ATP regenerating system.

[3] = test system: S. cerevisiae RS-72 expressing AHA2; assay: Drop test, yeast RS-72 expressing AHA2; type: cell-based; conditions: Saccharomyces cerevisiae, 72 h; no visible growth after 3 days at 30°C
Text: as §1
(§5) Transformed yeast cells, cultured on synthetic galactose (SG) agar medium supplemented with adenine 40 μg/mL and L-histidine 20 μg/mL (SGAH plates) for 3 days at 30°C, were suspended in H2O to 1x solution (OD660 = 1). Serial dilutions of 0.1, 0.01, 0.001 x of the cells were then prepared and spotted adjacently onto synthetic minimal media plates containing either 2% galactose or 2% glucose at pH 5.5 (SGAH or SDAH), incorporated with different concentrations of tested compound. Growth results were recorded after incubation for 3 days at 30°C. Minimum inhibitory concentrations (MIC values) were determined as the lowest concentrations of compounds where no visible growth of cells was observed.

[4] = test system: S. cerevisiae RS-72 expressing Pma1p; assay: Drop test, yeast RS-72 expressing Pma1p; type: cell-based; conditions: Saccharomyces cerevisiae, 72 h; no visible growth after 3 days at 30°C
Text: as §1, §5

[5] = test system: S. cerevisiae strain RS-72; assay: Drop test, yeast growth, all tested RS-72 strains; type: cell-based; conditions: Saccharomyces cerevisiae, RS72, 72 h, read-out: Minimum inhibitory concentration (MIC), yeast growth
Text: as §1, §5

[6] = set-up: method as in PMID 17999464; conditions: due to fast metabolism; cited from earlier work
[7] = test system: PM H+-ATPase in spinach plasma membrane vesicles; assay: Proton pumping assay (ACMA fluorescence quenching) in spinach plasma membrane vesicles; type: biochemical, Spinacia oleracea; conditions: 5–20 μM
Description: Baby spinach (Spinacia oleracea) leaves (50 g) were cut into small pieces and homogenized. Subsequently plasma membranes were isolated by two-phase partitioning according to [58]. Plasma membranes were collected and homogenized in the phase buffer containing 330 mM sucrose, 5 mM potassium phosphate pH 7.8, 2 mM KCl, 0.1 mM EDTA, and 1 mM DTT and stored at—80°C.
Inside-out vesicles were created from spinach plasma membranes by adding the detergent Brij-58 to the buffer. Proton transport into the vesicles was determined as described by monitoring fluorescence quenching (excitation at 412 nm, emission at 480 nm) of 9-amino-6-chloro-2-methoxyacridine (ACMA). The reaction medium contained 20 mM MOPS-KOH, pH 7.0, 40 mM K2SO4, 25 mM KNO3, 2 mM ATP, 1 μM ACMA, 60 nM valinomycin and 0.05% (w/v) Brij-58. Proton pumping reactions were started by the addition of MgSO4 to a final concentration of 2 mM, and the proton gradient was collapsed by the addition of 10 μM nigericin.

[8] = set-up: method as in doi:10.1016/S0260-8774(02)00264-9; conditions: cited from earlier work
[9] = 3 mM ATP, pH 6.5, 30°C, 30 min preincubation, read-out: IC50, ATP hydrolysis, AHA2

T2 sequence (P05030 whole entry): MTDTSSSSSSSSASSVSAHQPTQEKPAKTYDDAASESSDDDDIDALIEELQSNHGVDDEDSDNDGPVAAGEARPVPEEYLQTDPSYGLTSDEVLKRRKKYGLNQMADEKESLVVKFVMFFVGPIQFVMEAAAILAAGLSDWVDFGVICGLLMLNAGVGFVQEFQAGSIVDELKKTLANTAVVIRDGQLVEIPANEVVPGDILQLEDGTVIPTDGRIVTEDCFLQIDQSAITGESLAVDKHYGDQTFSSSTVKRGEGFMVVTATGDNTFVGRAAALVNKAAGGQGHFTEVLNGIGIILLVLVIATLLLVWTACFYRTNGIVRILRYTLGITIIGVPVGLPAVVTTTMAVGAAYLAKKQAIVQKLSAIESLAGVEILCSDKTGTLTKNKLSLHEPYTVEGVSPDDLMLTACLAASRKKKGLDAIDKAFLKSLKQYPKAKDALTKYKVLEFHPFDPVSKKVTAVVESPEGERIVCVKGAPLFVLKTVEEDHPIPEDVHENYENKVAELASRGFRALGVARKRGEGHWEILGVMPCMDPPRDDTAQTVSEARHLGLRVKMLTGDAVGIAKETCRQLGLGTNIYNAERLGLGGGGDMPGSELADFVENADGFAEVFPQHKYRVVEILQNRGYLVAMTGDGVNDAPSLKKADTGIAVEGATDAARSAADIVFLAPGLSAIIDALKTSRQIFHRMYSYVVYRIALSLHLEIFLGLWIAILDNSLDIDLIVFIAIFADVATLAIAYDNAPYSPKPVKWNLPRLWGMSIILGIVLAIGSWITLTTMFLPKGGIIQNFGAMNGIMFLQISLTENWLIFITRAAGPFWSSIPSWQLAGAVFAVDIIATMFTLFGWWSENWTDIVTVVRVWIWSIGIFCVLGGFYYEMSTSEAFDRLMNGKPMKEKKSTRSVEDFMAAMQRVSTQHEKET
SERCA1a (Ca2+-ATPase), sequence (P04191 1-994 isoform P04191-2): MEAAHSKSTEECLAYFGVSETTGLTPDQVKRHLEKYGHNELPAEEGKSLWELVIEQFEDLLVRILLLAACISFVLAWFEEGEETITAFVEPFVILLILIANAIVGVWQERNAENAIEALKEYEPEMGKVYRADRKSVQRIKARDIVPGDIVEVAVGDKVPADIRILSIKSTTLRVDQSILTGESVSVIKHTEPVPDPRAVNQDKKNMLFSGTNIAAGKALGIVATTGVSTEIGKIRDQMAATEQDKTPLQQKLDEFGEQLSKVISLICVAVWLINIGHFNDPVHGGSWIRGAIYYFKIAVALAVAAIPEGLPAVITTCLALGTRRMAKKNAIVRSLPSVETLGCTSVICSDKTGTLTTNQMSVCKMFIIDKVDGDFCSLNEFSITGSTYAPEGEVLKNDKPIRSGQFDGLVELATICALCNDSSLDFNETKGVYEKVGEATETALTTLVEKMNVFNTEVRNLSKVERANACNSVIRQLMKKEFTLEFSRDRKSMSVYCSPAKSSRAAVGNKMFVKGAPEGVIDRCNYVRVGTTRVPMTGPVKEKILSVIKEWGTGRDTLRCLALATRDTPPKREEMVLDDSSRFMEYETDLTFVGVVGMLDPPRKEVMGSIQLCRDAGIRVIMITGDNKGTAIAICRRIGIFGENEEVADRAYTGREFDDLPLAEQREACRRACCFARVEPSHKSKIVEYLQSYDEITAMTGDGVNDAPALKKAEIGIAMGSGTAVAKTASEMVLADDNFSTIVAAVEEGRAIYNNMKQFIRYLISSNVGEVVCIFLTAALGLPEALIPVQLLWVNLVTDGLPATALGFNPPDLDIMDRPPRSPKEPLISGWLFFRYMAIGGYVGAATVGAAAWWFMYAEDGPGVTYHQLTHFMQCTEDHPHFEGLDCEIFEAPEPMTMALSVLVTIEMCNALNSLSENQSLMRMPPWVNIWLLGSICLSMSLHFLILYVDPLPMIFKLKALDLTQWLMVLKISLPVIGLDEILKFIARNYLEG

Structure (SMILES) | effect on AHA2 ATPase activity [1] | IC50 [1, 9] | slope factor H of inhibition curve, AHA2 [1] | IC50 [2] | effect on Pma1p ATPase activity [2] | slope factor H of inhibition curve, Pma1p [2] | IC50 (SERCA1a (Ca2+-ATPase)) | MIC [3] | MIC [4] | MIC [5] | further results
COc1cc(/C=C/C(=O)/C=C(O)/C=C/c2ccc(O)c(OC)c2)ccc1O [CM (1), Curcumin] | significantly inhibited | 60.4 ± 1.1 µM | ~1 | 76.1 ± 1 µM | significantly inhibited | ~1 | 3.9 ± 0.4 µM | 40 to 50 µM (≈ 14.7 to 18.4 µg/mL) | 60 to 70 µM (≈ 22.1 to 25.8 µg/mL) | ~50 µM (≈ 18.4 µg/mL) | bioavailability [6]: poor bioavailability
COc1cc(/C=C/C(=O)/C=C(O)/C=C/c2ccc(O)cc2)ccc1O [DMCM (2), demethoxycurcumin] | significantly inhibited | 18.7 ± 1 µM | 2.4 | 28.9 ± 1 µM | significantly inhibited | 1.5 | 2.6 ± 0.9 µM | 20 to 30 µM (≈ 6.77 to 10.2 µg/mL) | 40 to 50 µM (≈ 13.5 to 16.9 µg/mL) | ~30 µM (≈ 10.2 µg/mL) | AHA2 Vmax ([1]; 10 μM demethoxycurcumin): 0.46 ± 0.02 µM/mg/min; AHA2 Vmax ([1]; 20 μM demethoxycurcumin): 0.35 ± 0.01 µM/mg/min; AHA2 Vmax ([1]; 30 μM demethoxycurcumin): 0.19 ± 0.01 µM/mg/min; AHA2 Vmax ([1]; 40 μM demethoxycurcumin): 0.11 ± 0.01 µM/mg/min; fold lower IC50 value in comparison to CM or BDCM ([1]; AHA2 and Pma1p ATP hydrolysis): 2- to 4 fold; mode of inhibition versus ATP, AHA2 ([1]; DMCM 0-40 μM, ATP 0.125–8 mM): noncompetitive inhibitor; Ki ([1]; in vitro, noncompetitive model, ATP 0.125-8 mM): 14.7 ± 0.7 µM; Ki [2]: 27.7 ± 1.2 µM; Pma1p Vmax ([2]; 10 μM demethoxycurcumin): 1.00 ± 0.13 µM/mg/min; Pma1p Vmax ([2]; 20 μM demethoxycurcumin): 0.63 ± 0.05 µM/mg/min; Pma1p Vmax ([2]; 30 μM demethoxycurcumin): 0.48 ± 0.04 µM/mg/min; Pma1p Vmax ([2]; 40 μM demethoxycurcumin): 0.39 ± 0.04 µM/mg/min; mode of inhibition versus ATP, Pma1p ([2]; DMCM 0-40 μM, ATP 0.125–8 mM): noncompetitive inhibitor; effect on H+ pumping activity [7]: dramatically reversed; chemical stability compared with CM [8]: more stable
O=C(/C=C(O)/C=C/c1ccc(O)cc1)/C=C/c1ccc(O)cc1 [BDCM (3), bisdemethoxycurcumin] | significantly inhibited |  | ~1 |  | significantly inhibited | ~1 |  | 200 to 210 µM (≈ 61.7 to 64.7 µg/mL) | 210 to 220 µM (≈ 64.7 to 67.8 µg/mL) |  | IC50 [1]: 76.7 ± 1.1 µM; IC50 ([2]; 5 mM ATP, pH 5.9, 30°C, 30 min preincubation, read-out: IC50, ATP hydrolysis, Pma1p): 90.6 ± 1.1 µM; MIC ([5]; approximate values, 3 days at 30°C): ~200 µM (≈ 61.7 µg/mL)
